According to patent US20170114030A1, “COMPOSITION WITH HIGH CONTENT OF CYCLIC DIPEPTIDE” (SUNTORY HOLDINGS LIMITED, priority 2014, published 2017):

What was measured:
[1] = test system: NCI-H716 cells; assay: In vitro GLP-1 secretion-accelerating action (active GLP-1 ELISA); assay type: cell-based; conditions: for Significant difference (p < 0.05) vs control group, amount of active GLP-1 secreted: 1 hour, Student's t-test; for Amount of active GLP-1 secreted (relative value to control group as 100), Average value: after 1 hour, group with no cyclic dipeptide = 100
Description: (§1) In the Test Examples below, data were represented as average value±standard error. In Test Examples 1, 2, and 3, a Student's t-test was used for a statistical test, and in other Test Examples, one-way ANOVA was carried out for dispersion analysis followed by a multiple comparison test by using a Dunnet's test. […] All of these analyses were carried out by using an SPSS for Windows release 17.0 (manufactured by SPSS Inc.).
Among the cyclic dipeptides, 92 highly water-soluble cyclic dipeptides were used in the following experiment. In each well of a Poly-L-Lysine 96-well plate, NCI-H716 cells suspended in 100 μL of a DMEM (with 10% FBS, 2 mM glutamine, and 1% antibiotics added in advance) were seeded at 0.5×10^5 cells/well, and cultured in a CO2 incubator (manufactured by ESPEC CORP.) for 48 hours. After washing with PBS(+), 100 μL of a PBS(+) solution with each cyclic dipeptide at a final concentration of 10 mM and 10 μM of Sitagliptin phosphate added therein was added to the cells. After 1 hour, the resultant solution was recovered, and the amount of active GLP-1 in the solution was measured by using the ELISA kit. In the analysis, the amount of active GLP-1 for a group with no cyclic dipeptide added was defined as 100, and relative values thereto were used.
In each Table, cyclic dipeptides for which an in vitro active GLP-1 secretion-accelerating activity was found and was not found are listed.

[2] = test system: plasma active GLP-1; assay: In vivo plasma active GLP-1 level-increasing action after oral administration; parameters: species or system mice; conditions: Experiment 4, 10 mg/kg orally
Description: as §1
Among the cyclic dipeptides, cyclic dipeptides for which an in vitro GLP-1 secretion-accelerating action was found and highly lipid-soluble cyclic dipeptides were used in the following experiment. Seven-week-old male C57/BL6J mice were purchased from CLEA Japan, Inc. for use, and they were subjected to an experiment after 1 week of a habituation period. Each animal was grown in an animal room with an air conditioning system (temperature: 23.5±1.0° C., humidity: 55±10 RH %, air ventilation: 12 to 15 times/hour, illumination: from 7:00 to 19:00/day).
After the habituation period, the mice were subjected to 5.5 hours of food deprivation and 2 hours of water deprivation. Thereafter, a cyclic dipeptide dissolved or suspended in a 0.5% CMC-Na aqueous solution in 10 mg/kg was orally administered to each mouse forcibly. After 30 minutes, the blood was collected from the abdominal vena cava under anesthesia, and 1 μL of heparin sodium and 1 μL of 10 mM Sitagliptin phosphate were added to each collected blood, which was then subjected to centrifugation at 8000 rpm for 10 minutes to recover the plasma, and the plasma active GLP-1 level was measured by using the ELISA kit. In the analysis, the active GLP-1 level for a group administered with 0.5% CMC-Na aqueous solution was defined as 100, and relative values thereto were used.
In each Table, cyclic dipeptides for which an in vivo plasma active GLP-1 level-increasing action was found and was not found are listed.

[3] = Experiment 5, cyclic dipeptide 10 mM with 10 μM Sitagliptin phosphate
[4] = Experiment 1, cyclic dipeptide 10 mM with 10 μM Sitagliptin phosphate
[5] = Experiment 2, cyclic dipeptide 10 mM with 10 μM Sitagliptin phosphate
[6] = Experiment 3, cyclic dipeptide 10 mM with 10 μM Sitagliptin phosphate

| Compound | Significant difference (p < 0.05) vs control group, amount of active GLP-1 secreted ([1]; Experiment 5, 10 mM) | Amount of active GLP-1 secreted (relative value to control group as 100), Average value [1, 3] | Significant difference (p < 0.05) vs control group, amount of active GLP-1 secreted ([1]; Experiment 3, 10 mM) | Amount of active GLP-1 secreted (relative value to control group as 100), Average value [1, 6] | other results |
| --- | --- | --- | --- | --- | --- |
| O=C1NCC(=O)N2CCCC12 (stereo not shown) [compound 4] | Yes | 157 | – | – | – |
| O=C1CNC(=O)C(Cc2ccccc2)N1 (stereo not shown) [compound 8] | – | – | – | – | Plasma active GLP-1 level (relative value to control group as 100), Average value ([2]; male C57/BL6J mice, blood after 30 minutes, 0.5% CMC-Na group = 100): 85; Significant difference (p < 0.05) vs control group, plasma active GLP-1 level ([2]; mice, 30 minutes, Student's t-test): No |
| CC(C)CC1NC(=O)CNC1=O (stereo not shown) [compound 21] | No | 131 | – | – | – |
| O=C(O)CCC1NC(=O)CNC1=O (stereo not shown) [compound 24] | No | 89 | – | – | – |
| O=C1CNC(=O)C(Cc2c[nH]cn2)N1 (stereo not shown) [compound 27] | No | 82 | – | – | – |
| O=C(O)CC1NC(=O)CNC1=O (stereo not shown) [compound 32] | Yes | 12 | – | – | – |
| NC(=O)CCC1NC(=O)CNC1=O (stereo not shown) [compound 36] | No | 75 | – | – | – |
| NCCCC[C@@H]1NC(=O)[C@H](CCCCN)NC1=O [compound 40] | – | – | – | – | Significant difference (p < 0.05) vs control group, amount of active GLP-1 secreted ([1]; Experiment 1, 10 mM): No; Amount of active GLP-1 secreted (relative value to control group as 100), Average value [1, 4]: 164 |
| O=C(O)CC[C@@H]1NC(=O)[C@@H]2CCCN2C1=O [compound 45] | – | – | – | – | Significant difference (p < 0.05) vs control group, amount of active GLP-1 secreted ([1]; Experiment 1, 10 mM): No; Amount of active GLP-1 secreted (relative value to control group as 100), Average value [1, 4]: 145 |
| O=C1N[C@@H](CO)C(=O)N2CCC[C@@H]12 [compound 46] | – | – | – | – | Significant difference (p < 0.05) vs control group, amount of active GLP-1 secreted ([1]; Experiment 2, 10 mM): No; Amount of active GLP-1 secreted (relative value to control group as 100), Average value [1, 5]: 139 |
| NC(=O)CC[C@@H]1NC(=O)[C@H](Cc2ccccc2)NC1=O [compound 65] | – | – | – | – | Significant difference (p < 0.05) vs control group, amount of active GLP-1 secreted ([1]; Experiment 2, 10 mM): Yes; Amount of active GLP-1 secreted (relative value to control group as 100), Average value [1, 5]: 227 |
| CC(C)C[C@@H]1NC(=O)[C@H](CCCCN)NC1=O [compound 68] | – | – | – | – | Significant difference (p < 0.05) vs control group, amount of active GLP-1 secreted ([1]; Experiment 2, 10 mM): No; Amount of active GLP-1 secreted (relative value to control group as 100), Average value [1, 5]: 208 |
| O=C1N[C@@H](Cc2c[nH]c3ccccc23)C(=O)N[C@H]1CO [compound 78] | – | – | – | – | Significant difference (p < 0.05) vs control group, amount of active GLP-1 secreted ([1]; Experiment 2, 10 mM): No; Amount of active GLP-1 secreted (relative value to control group as 100), Average value [1, 5]: 119 |
| NCCCC[C@@H]1NC(=O)CNC1=O [compound 96] | – | – | Yes | 133 | – |
| NCCCCC1NC(=O)C(CCC(=O)O)NC1=O (stereo not shown) [compound 97] | – | – | No | 66 | – |
| NCCCCC1NC(=O)C(CO)NC1=O (stereo not shown) [compound 98] | – | – | Yes | 71 | – |
| CC(C)C1NC(=O)C(CCCCN)NC1=O (stereo not shown) [compound 99] | – | – | Yes | 532 | – |
| NCCCCC1NC(=O)C(CC(N)=O)NC1=O (stereo not shown) [compound 101] | – | – | Yes | 250 | – |
| NCCCCC1NC(=O)C(CCC(N)=O)NC1=O (stereo not shown) [compound 102] | – | – | No | 112 | – |
| NC(=O)CC1NC(=O)C(Cc2cnc[nH]2)NC1=O (stereo not shown) [compound 111] | – | – | Yes | 341 | – |
